In patent US12384780B2, “PARP1 inhibitors and uses thereof” (XinThera, Inc., priority 2022, dated 2025):

How the values were obtained:
PARP1 = target: T1, PARP1 (Homo sapiens, UniProt P09874); assay: Biochemical fluorescent polarization (FP) assay, displacement of PARPi-FL, PARP1; assay type: binding; details: 20 nM protein, 3 nM PARPi-FL, 4 h at room temperature; for IC50: read-out: FP PARP1 pIC50 (converted)
T1 construct: made in house
Protocol: (§1) Compounds were characterized using an assay measuring the displacement of a commercially available fluorescently labeled PARP 1/2 inhibitor (PARPi-FL, Tocris Biosciences, #6461) as exemplified in assays performed in WO2014/064149 and WO2021/013735A1. The assay was performed utilizing the following method: Compounds were dissolved in DMSO an Echo550 liquid handler was utilized to make serial dilations in the desired concentration range in Optiplate-384F plates. 100% DMSO was used for the high (with protein) and low (without protein) control samples. 20 nL of compound or DMSO alone was added to individual assay plate wells. PARP1 and PARP2 protein were expressed, purified, and diluted in assay buffer containing 50 mM Tris pH 8.0, 0.001% Triton X-100, 10 mM MgCl2, 150 mM NaCl to a final concentration of 20 nM. The PARPi-FL was then added at a final concentration of 3 nM. The assay plate was centrifuged at 1000 rpm for 1 min and incubated for 4 h at room temperature. […] [formula]

DLD-1 BRCA2(−/−) cells = assay: Cell growth inhibition assay (CellTiter-Glo), DLD-1 BRCA2(−/−); assay type: cell-based; details: Homo sapiens, DLD-1, 168 h; 200 cells/well, 7 days, CellTiter Glo 2.0; read-out: DLD-1 BRCA2(−/−) pEC50 (converted)
Protocol: (§2) Cell proliferation was measured through the cell viability assay using DLD-1 BRCA2(−/−) and parental isogenic pair and MDA-MB-436 (mutated BRCA1) cell lines. The CellTiter-Glo (CTG) based cell viability assay is designed to determine the number of viable cells in the culture because of compound effect, by quantifying ATP, which indicates the presence of metabolically active cells.
(§3) DLD-1 BRCA2(−/−) and parental isogenic pair were cultured in RPMI 1640 supplemented with […] (FBS), and […] cells were cultured in DMEM supplemented with 10% FBS. Both were cultured at 37° C. with […]. Invention compounds were distributed to the 384 well plate (Corning, 3764) using Echo acoustic liquid handler to form a 1:3 serially diluted final concentration with top dose of 10 or 30 μM. The cells were seeded into the plate in the density of 50 cells/well (DLD-1 parental), 200 cells/well (DLD-1 BRCA2−/−), or 500 cells/well (MDA-MB-436). After a short spun, the cells were cultured in a well moisturized incubator at 37° C. with 5% CO2 for 7 days without disturbance. The cell viability was measured by CellTiter Glo 2.0 assay kit (Promega, G9243), and growth inhibition rate was calculated and plotted against final compound concentration, and the data were fitted in Xfit to generate IC50 values.

PARP2 = target: T2, PARP2 (Homo sapiens, UniProt Q9UGN5); assay: Biochemical fluorescent polarization (FP) assay, displacement of PARPi-FL, PARP2; assay type: binding; details: 20 nM protein, 3 nM PARPi-FL, 4 h at room temperature; read-out: FP PARP2 pIC50 (converted)
T2 construct: made in house
T2 sequence (Q9UGN5 whole entry): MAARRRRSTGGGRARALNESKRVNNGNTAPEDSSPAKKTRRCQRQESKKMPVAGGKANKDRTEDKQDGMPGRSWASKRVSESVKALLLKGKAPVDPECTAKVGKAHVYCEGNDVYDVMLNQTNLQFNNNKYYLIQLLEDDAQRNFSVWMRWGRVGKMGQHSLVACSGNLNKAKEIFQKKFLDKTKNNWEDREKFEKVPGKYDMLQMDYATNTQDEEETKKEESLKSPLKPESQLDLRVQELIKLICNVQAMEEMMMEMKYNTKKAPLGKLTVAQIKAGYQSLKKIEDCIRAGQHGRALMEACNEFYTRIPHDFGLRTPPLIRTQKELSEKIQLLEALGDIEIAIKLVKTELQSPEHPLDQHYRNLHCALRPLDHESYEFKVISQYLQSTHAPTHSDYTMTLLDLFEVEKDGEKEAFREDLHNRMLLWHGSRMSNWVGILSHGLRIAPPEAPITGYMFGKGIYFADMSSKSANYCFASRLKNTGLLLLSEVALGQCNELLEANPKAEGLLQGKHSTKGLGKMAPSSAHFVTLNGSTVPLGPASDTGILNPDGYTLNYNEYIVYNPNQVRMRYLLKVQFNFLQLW
Protocol: as §1

[1] = system: MDA-MB-436 (mutated BRCA1) cells; assay: Cell growth inhibition assay (CellTiter-Glo), MDA-MB-436; assay type: cell-based; details: Homo sapiens, MDA-MB-436, 168 h, 500 cells/well, 7 days, CellTiter Glo 2.0; read-out: MDA-MB-436 pEC50 (converted)
Protocol: as §2, §3

T1 sequence (P09874 whole entry): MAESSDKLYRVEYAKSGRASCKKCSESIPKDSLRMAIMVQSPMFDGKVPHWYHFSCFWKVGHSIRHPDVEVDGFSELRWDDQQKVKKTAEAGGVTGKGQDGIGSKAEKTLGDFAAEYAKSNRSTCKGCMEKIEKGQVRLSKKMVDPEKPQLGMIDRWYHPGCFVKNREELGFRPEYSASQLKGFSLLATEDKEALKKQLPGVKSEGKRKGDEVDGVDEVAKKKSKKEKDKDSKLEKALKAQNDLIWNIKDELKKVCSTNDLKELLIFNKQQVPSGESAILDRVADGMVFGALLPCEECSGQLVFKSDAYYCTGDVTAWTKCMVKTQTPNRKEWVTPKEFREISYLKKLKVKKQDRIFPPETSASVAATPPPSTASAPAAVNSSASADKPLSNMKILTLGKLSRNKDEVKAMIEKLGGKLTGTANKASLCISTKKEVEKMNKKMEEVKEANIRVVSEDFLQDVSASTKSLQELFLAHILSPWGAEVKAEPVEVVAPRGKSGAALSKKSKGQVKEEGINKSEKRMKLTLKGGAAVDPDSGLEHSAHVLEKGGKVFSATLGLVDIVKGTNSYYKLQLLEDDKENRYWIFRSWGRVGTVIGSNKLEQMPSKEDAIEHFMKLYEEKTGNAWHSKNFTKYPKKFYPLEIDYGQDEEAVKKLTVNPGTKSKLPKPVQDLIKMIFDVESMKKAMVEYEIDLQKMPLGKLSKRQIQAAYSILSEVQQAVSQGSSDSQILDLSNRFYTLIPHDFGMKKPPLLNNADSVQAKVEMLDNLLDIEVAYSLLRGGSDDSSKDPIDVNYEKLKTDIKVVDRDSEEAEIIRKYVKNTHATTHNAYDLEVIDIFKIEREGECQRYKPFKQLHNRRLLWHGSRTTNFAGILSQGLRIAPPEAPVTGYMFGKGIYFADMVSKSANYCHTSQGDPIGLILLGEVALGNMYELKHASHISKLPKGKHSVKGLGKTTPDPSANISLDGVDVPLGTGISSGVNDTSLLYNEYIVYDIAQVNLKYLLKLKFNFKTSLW

## O=c1[nH]c2cc(CN3CCN(c4ccc(F)cn4)CC3)cnc2cc1C1CC1 [Example 16, 3-cyclopropyl-7-{[4-(5-fluoropyridin-2-yl)piperazin-1-yl]methyl}-1H-1,5-naphthyridin-2-one]
PARP1
  FP PARP1 pIC50: 8.5
DLD-1 BRCA2(−/−) cells
  EC50: 10 nM
PARP2
  IC50: 2510 nM
[1]
  EC50: 10 nM

## Cc1cc2ncc(CN3CCN(c4ncc(C#N)cc4F)CC3)cc2[nH]c1=O [Example 30]
PARP1
  IC50: 15.8 nM
DLD-1 BRCA2(−/−) cells
  EC50: > 1000 nM
PARP2
  IC50: > 100000 nM
[1]
  EC50: > 1000 nM

## Cc1cc2ncc([C@@H](C)N3CCN(c4ccc(C#N)cn4)[C@H](C)C3)cc2[nH]c1=O (single isomer, unassigned) [Example 28, rel-6-[(2R)-2-methyl-4-[(1R*)-1-(7-methyl-6-oxo-5H-1,5-naphthyridin-3-yl)ethyl]piperazin-1-yl]pyridine-3-carbonitrile]
PARP1
  IC50: > 100 nM
DLD-1 BRCA2(−/−) cells
  EC50: 63.1 nM
PARP2
  IC50: > 100000 nM
[1]
  EC50: 63.1 nM

## Cc1nc2ccc(CN3CCN(c4ccc(C#N)cn4)CC3)cc2[nH]c1=O [Example 84]
PARP1
  IC50: 10 nM
DLD-1 BRCA2(−/−) cells
  EC50: 6.31 nM
PARP2
  IC50: 50100 nM
[1]
  EC50: 7.94 nM

## C[C@@H]1CN(Cc2cnc3cc(C4CC4)c(=O)[nH]c3c2)CCN1c1ccc(F)cn1 [Example 22]
PARP1
  IC50: 7.94 nM
DLD-1 BRCA2(−/−) cells
  EC50: 126 nM
PARP2
  IC50: 12600 nM
[1]
  EC50: 158 nM

## Cc1cc2ncc(CN3CCN(c4ccc(C#N)cc4F)CC3)cc2[nH]c1=O [Example 18]
PARP1
  IC50: 5.01 nM
DLD-1 BRCA2(−/−) cells
  EC50: 3.16 nM
PARP2
  IC50: > 100000 nM
[1]
  EC50: 2.51 nM

## CCc1cc2ncc(CN3CCN(c4ccc(C#N)nc4)[C@@H]4C[C@@H]43)cc2[nH]c1=O (single isomer, unassigned) [Example 15]
PARP1
  IC50: 5.01 nM
DLD-1 BRCA2(−/−) cells
  EC50: 7.94 nM
PARP2
  IC50: 10000 nM
[1]
  EC50: 5.01 nM

## Cc1cc2ncc(CN3CCN(c4ccc(F)cn4)[C@H](C)C3)cc2[nH]c1=O [Example 23]
PARP1
  IC50: 39.8 nM
DLD-1 BRCA2(−/−) cells
  EC50: 100 nM
PARP2
  IC50: > 100000 nM
[1]
  EC50: 200 nM

## CCc1cc2ncc(CN3CCC(c4ccc(C#N)cn4)CC3)cc2[nH]c1=O [Example 64]
PARP1
  IC50: 5.01 nM
DLD-1 BRCA2(−/−) cells
  EC50: 5.01 nM
PARP2
  IC50: > 100000 nM
[1]
  EC50: 2 nM

## Cc1cc2ncc(CN3CCN(c4ccc(C#N)nc4C4CC4)CC3)cc2[nH]c1=O [Example 27]
PARP1
  IC50: 7.94 nM
DLD-1 BRCA2(−/−) cells
  EC50: 12.6 nM
PARP2
  IC50: > 100000 nM
[1]
  EC50: 39.8 nM

## N#Cc1ccc(N2CCN(Cc3cnc4cc(C(F)F)c(=O)[nH]c4c3)CC2)nc1 [Example 48, 6-(4-{[7-(difluoromethyl)-6-oxo-5H-1,5-naphthyridin-3-yl]methyl}piperazin-1-yl)pyridine-3-carbonitrile]
PARP1
  IC50: 3.98 nM
DLD-1 BRCA2(−/−) cells
  EC50: 1 nM
PARP2
  IC50: 1260 nM
[1]
  EC50: 1 nM

## CCc1nc2c(F)cc(CN3CCN(c4ccc(C#N)cn4)CC3)cc2[nH]c1=O [Example 5, 6-(4-((2-ethyl-8-fluoro-3-oxo-3,4-dihydroquinoxalin-6-yl)methyl)piperazin-1-yl)nicotinonitrile]
PARP1
  FP PARP1 pIC50: 8.5
DLD-1 BRCA2(−/−) cells
  EC50: 3.98 nM
PARP2
  IC50: > 100000 nM
[1]
  EC50: 3.98 nM

## Cc1cc2ncc(CN3CCN(c4ccc(C#N)cn4)[C@H]4C[C@H]43)cc2[nH]c1=O (single isomer, unassigned) [Example 19]
PARP1
  IC50: 6.31 nM
DLD-1 BRCA2(−/−) cells
  EC50: 200 nM
PARP2
  IC50: > 100000 nM
[1]
  EC50: 158 nM

## CCc1cc2ncc(CN3CCN(c4ccc(Br)cn4)CC3)cc2[nH]c1=O [Example 7]
PARP1
  IC50: 25.1 nM
DLD-1 BRCA2(−/−) cells
  EC50: 6.31 nM
PARP2
  IC50: > 100000 nM
[1]
  EC50: 6.31 nM

## Cc1c(Cl)c(=O)[nH]c2cc(CN3CCN(c4ccc(C#N)cc4)CC3)cnc12 [Example 2, 4-{4-[(7-chloro-8-methyl-6-oxo-5H-1,5-naphthyridin-3-yl)methyl]piperazin-1-yl}benzonitrile]
PARP1
  IC50: 50.1 nM
DLD-1 BRCA2(−/−) cells
  EC50: 1.58 nM
PARP2
  IC50: 7940 nM
[1]
  EC50: 1.26 nM

## C[C@@H]1CN(Cc2cnc3cc(C4CC4)c(=O)[nH]c3c2)CCN1c1ccc(C#N)cn1 [Example 25]
PARP1
  IC50: 6.31 nM
DLD-1 BRCA2(−/−) cells
  EC50: 31.6 nM
PARP2
  IC50: > 100000 nM
[1]
  EC50: 50.1 nM

## Cc1cc2ncc(CN3CCN(c4ccc(C#N)nc4C(F)F)CC3)cc2[nH]c1=O [Example 31]
PARP1
  IC50: 6.31 nM
DLD-1 BRCA2(−/−) cells
  EC50: 15.8 nM
PARP2
  IC50: > 100000 nM
[1]
  EC50: 6.31 nM

## Cc1c(C(F)F)c(=O)[nH]c2cc(CN3CCN(c4ccc(C#N)cn4)CC3)cnc12 [Example 42, 6-(4-{[7-(difluoromethyl)-8-methyl-6-oxo-5H-1,5-naphthyridin-3-yl]methyl}piperazin-1-yl)pyridine-3-carbonitrile]
PARP1
  IC50: 50.1 nM
DLD-1 BRCA2(−/−) cells
  EC50: 2 nM
PARP2
  IC50: 316 nM
[1]
  EC50: 1 nM

## N#Cc1ccc(N2CCN(Cc3cnc4cc(Cl)c(=O)[nH]c4c3)CC2)cc1 [Example 66]
PARP1
  IC50: 5.01 nM
DLD-1 BRCA2(−/−) cells
  EC50: 2 nM
PARP2
  IC50: > 100000 nM
[1]
  EC50: 1.58 nM

## Cc1cc2ncc([C@H](C)N3CCN(c4ccc(C#N)cn4)CC3)cc2[nH]c1=O (single isomer, unassigned) [Example 32]
PARP1
  IC50: 3.98 nM
DLD-1 BRCA2(−/−) cells
  EC50: 12.6 nM
PARP2
  IC50: > 100000 nM
[1]
  EC50: 7.94 nM

## Cc1cc2ncc([C@H](C)N3CCN(c4ccc(C#N)cn4)[C@H](C)C3)cc2[nH]c1=O (single isomer, unassigned) [Example 29]
PARP1
  IC50: 6.31 nM
DLD-1 BRCA2(−/−) cells
  EC50: 63.1 nM
PARP2
  IC50: > 100000 nM
[1]
  EC50: 79.4 nM

## Cc1cc2ncc(CN3CCN(c4ccc(C#N)nc4Cl)CC3)cc2[nH]c1=O [Example 55]
PARP1
  IC50: 7.94 nM
DLD-1 BRCA2(−/−) cells
  EC50: 1.26 nM
PARP2
  IC50: > 100000 nM
[1]
  EC50: 1 nM

## [2H]C([2H])(c1cnc2cc(C(F)F)c(=O)[nH]c2c1)N1CCN(c2ccc(C#N)cn2)CC1 [Example 63]
PARP1
  IC50: 15.8 nM
DLD-1 BRCA2(−/−) cells
  EC50: 1.58 nM
PARP2
  IC50: 794 nM
[1]
  EC50: 1.26 nM

## Cc1cc2ncc(CN3CCN(c4cc(F)c(F)cn4)CC3)cc2[nH]c1=O [Example 58]
PARP1
  IC50: 12.6 nM
DLD-1 BRCA2(−/−) cells
  EC50: 7.94 nM
PARP2
  IC50: 15800 nM
[1]
  EC50: 7.94 nM

## Cc1cc2ncc(CN3CCN(c4ccc(C#N)c(F)c4)CC3)cc2[nH]c1=O [Example 44]
PARP1
  IC50: 10 nM
DLD-1 BRCA2(−/−) cells
  EC50: 2.51 nM
PARP2
  IC50: 3160 nM
[1]
  EC50: 1.58 nM

## CCc1cc2ncc(CN3CCN(c4ccc(C#N)cc4OC)CC3)cc2[nH]c1=O [Example 39]
PARP1
  IC50: 6.31 nM
DLD-1 BRCA2(−/−) cells
  EC50: 2 nM
PARP2
  IC50: > 100000 nM
[1]
  EC50: 1.26 nM

## CCc1cc2ncc(CN3CCN(c4ccc(C#N)cn4)CC3)cc2[nH]c1=O [Example 10]
PARP1
  IC50: 5.01 nM
DLD-1 BRCA2(−/−) cells
  EC50: 0.794 nM
PARP2
  IC50: 5010 nM
[1]
  EC50: 0.794 nM

## N#Cc1ccc(N2CCN(Cc3cnc4cc(C5CCCO5)c(=O)[nH]c4c3)CC2)nc1 (single isomer, unassigned) [Example 68, 6-(4-{[6-oxo-7-(oxolan-2-yl)-5H-1,5-naphthyridin-3-yl]methyl}piperazin-1-yl)pyridine-3-carbonitrile]
PARP1
  IC50: 12.6 nM
DLD-1 BRCA2(−/−) cells
  EC50: 39.8 nM
PARP2
  IC50: 79400 nM
[1]
  EC50: 25.1 nM

## Cc1cc2ncc([C@@H](C)N3CCN(c4ccc(C#N)cn4)CC3)cc2[nH]c1=O (single isomer, unassigned) [Example 33]
PARP1
  IC50: 2.51 nM
DLD-1 BRCA2(−/−) cells
  EC50: 3.16 nM
PARP2
  IC50: 6310 nM
[1]
  EC50: 2.51 nM

## Cc1cc2ncc(CN3CCN(c4ccc(C#N)cn4)[C@H](C)C3)cc2[nH]c1=O [Example 24]
PARP1
  IC50: 10 nM
DLD-1 BRCA2(−/−) cells
  EC50: 79.4 nM
PARP2
  IC50: > 100000 nM
[1]
  EC50: 50.1 nM

## N#Cc1ccc(N2CCN(Cc3cnc4cc(Br)c(=O)[nH]c4c3)CC2)nc1 [Example 60, 6-{4-[(7-bromo-6-oxo-5H-1,5-naphthyridin-3-yl)methyl]piperazin-1-yl}pyridine-3-carbonitrile]
PARP1
  IC50: 6.31 nM
DLD-1 BRCA2(−/−) cells
  EC50: 1.58 nM
PARP2
  IC50: 2000 nM
[1]
  EC50: 1.26 nM
